Laboratory results as given in US20180303807A1, “ANDROGEN RECEPTOR LIGANDS” (DUKE UNIVERSITY, priority 2015, published 2018).
Changes are numbered by the printed parent chain.

How the values were obtained:
[1] = biological target: T1, AR (Homo sapiens, UniProt P10275); assay: Reporter gene assay, AR transcriptional (MMTV-Luc) in CV1 cells; format: cell-based; conditions: pcDNA-AR + MMTV-Luc, 0.1 nM R1881 plus test compound, 24 hrs, read-out: B1 = AR transcriptional IC50 (μM) in CV1 cells
T1 construct: expressed in transfected cells; host or cells: CV1 cells
T1 sequence (P10275 1-920): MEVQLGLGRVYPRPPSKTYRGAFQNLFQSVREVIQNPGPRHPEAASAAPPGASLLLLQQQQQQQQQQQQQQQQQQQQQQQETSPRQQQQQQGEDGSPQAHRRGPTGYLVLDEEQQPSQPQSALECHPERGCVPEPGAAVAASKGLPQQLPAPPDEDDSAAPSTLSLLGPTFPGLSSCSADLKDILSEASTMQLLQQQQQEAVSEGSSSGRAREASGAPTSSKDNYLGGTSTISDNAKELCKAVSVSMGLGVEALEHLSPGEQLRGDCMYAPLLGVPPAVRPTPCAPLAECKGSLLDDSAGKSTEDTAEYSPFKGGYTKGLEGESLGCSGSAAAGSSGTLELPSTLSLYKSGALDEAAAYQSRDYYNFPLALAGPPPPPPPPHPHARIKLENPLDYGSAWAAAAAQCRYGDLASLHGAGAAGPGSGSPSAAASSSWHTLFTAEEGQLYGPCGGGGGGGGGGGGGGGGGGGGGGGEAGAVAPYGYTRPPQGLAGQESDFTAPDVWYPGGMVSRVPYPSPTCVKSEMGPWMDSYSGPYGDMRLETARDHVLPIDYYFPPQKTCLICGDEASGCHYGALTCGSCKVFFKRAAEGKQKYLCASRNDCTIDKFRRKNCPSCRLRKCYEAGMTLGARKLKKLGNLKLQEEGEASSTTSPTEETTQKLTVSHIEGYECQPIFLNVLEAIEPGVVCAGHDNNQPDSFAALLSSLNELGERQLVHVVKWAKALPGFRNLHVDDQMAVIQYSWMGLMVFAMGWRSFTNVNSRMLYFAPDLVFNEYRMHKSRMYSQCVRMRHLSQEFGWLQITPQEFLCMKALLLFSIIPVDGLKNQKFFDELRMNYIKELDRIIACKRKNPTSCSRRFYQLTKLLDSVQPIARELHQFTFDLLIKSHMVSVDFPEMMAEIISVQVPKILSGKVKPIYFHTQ
Protocol: Reporter Gene Assay (IC50 determination, Table 2, B1-B3). CV1 cells were seeded into 96-well cell culture plates and transfected with Lipofectin. For AR transcriptional assays, the DNA mixture consisted of pcDNA-AR, MMTV-Luc (androgen responsive reporter gene), and Renilla-Luc (for assessing transfection efficiency and toxicity). Following overnight incubation, cells were induced with hormone (0.1 nM R1881 (synthetic AR agonist) plus increasing concentrations of test compound) for 24 hrs. Cells were lysed and luciferase activity was quantified using Dual Luciferase Reagent (DLR). IC50 determination was assessed using GraphPad Prism software.

[2] = biological target: T2, AR (Homo sapiens, UniProt P10275, T878A); assay: In Cell Western AR degradation assay in LNCaP cells; format: cell-based; conditions: 18 hrs, greater than 50% degradation at 10 μM (method says 20 μM)
T2 construct: endogenous in cells; host or cells: LNCaP cells
T2 sequence (P10275 1-920 T878A): T1 sequence (P10275 1-920) with T878A
Protocol: In Cell Western (AR degradation Assay, Table 2, B10). LNCaP cells were plated in 96-well clear bottom black plates (20K cells/well) in RPMI supplemented with 8% CFS. Following 48 hr incubation, cells were treated with hormone (20 μM test compound) for 18 hrs. Cells were fixed with formaldehyde (3.7%) and permeabilized using PBS (0.1% TRITON X-100). Cells were incubated with anti-AR antibody (N20, 1:2000), washed with PBS (0.1% Tween), and stained with 2nd antibody (Biotium CF770 goat anti-rabbit, 1:2000). AR protein expression was assessed using the LI-COR Odyssey imaging system. DRAQ5 (DNA stain, 1:10,000, Thermo Scientific) was used to normalize AR protein expression.
For B4-B7, scoring system is based on the relative AR target gene agonist/antagonist activity of test compounds when compared to benchmark compounds enzalutamide or bicalutamide. […] The lack of agonist activity is desirable for therapies intended to treat CRPC. For B4 and B6, a score of 1 indicates less agonism (highly desired activity) than benchmark compound enzalutamide, a score of 2 indicates equal agonism to enzalutamide (desirable), a score of 3 indicates agonism between enzalutamide and bicalutamide (less desirable activity), a score of 4 indicates equal agonism to bicalutamide (liability), and a score of 5 indicates higher agonism than bicalutamide (liability). For B5 and B7 a score of 1 indicates higher antagonist efficacy (highly desired activity) than benchmark compound enzalutamide, a score of 2 indicates equal antagonist efficacy to enzalutamide (desirable), a score of 3 indicates antagonist efficacy between enzalutamide and bicalutamide (less desirable activity), a score of 4 indicates antagonist efficacy equal to bicalutamide (liability), and a score of 5 indicates antagonist efficacy worse than bicalutamide (liability) For B9, Compounds that degrade AR (greater than 50% degradation at 10 μM) are indicated.

Structure (SMILES)	IC50 [1]	B9 = AR degradation in LNCaP cells (In-Cell Western) [2]
CC1(C)CC(=O)C2=C(C1)Nc1ccc3cnccc3c1C2c1ccc(F)c(F)c1 (racemic) [Compound A91, (±)-12-(3,4-difluorophenyl)-9,9-dimethyl-8,9,10,12-tetrahydrobenzo[j][3,7]phenanthrolin-11(7H)-one]	1.4 µM	Degrader (Compounds that degrade AR (greater than 50% degradation at 10 μM) are indicated)
CC1(C)CC(=O)C2=C(C1)Nc1ccc3ncccc3c1C2c1cc2ccccc2s1 (racemic) [Compound A92, (±)-12-(benzo[b]thiophen-2-yl)-9,9-dimethyl-8,9,10,12-tetrahydrobenzo[b][4,7]phenanthrolin-11(7H)-one]	0.9 µM	Degrader (Compounds that degrade AR (greater than 50% degradation at 10 μM) are indicated)
CC1(C)CC(=O)C2=C(C1)Nc1ccc3nccnc3c1C2c1cc2ccccc2s1 (racemic) [Compound A93, (±)-12-(benzo[b]thiophen-2-yl)-9,9-dimethyl-8,9,10,12-tetrahydropyrazino[2,3-a]acridin-11(7H)-one]	1.2 µM	Degrader (Compounds that degrade AR (greater than 50% degradation at 10 μM) are indicated)
CC1(C)CC(=O)C2=C(C1)Nc1ccc3cccnc3c1C2c1ccc(F)c(F)c1 (racemic) [Compound A96, (±)-12-(3,4-difluorophenyl)-9,9-dimethyl-8,9,10,12-tetrahydrobenzo[j][1,7]phenanthrolin-11(7H)-one]	0.8 µM	Degrader (Compounds that degrade AR (greater than 50% degradation at 10 μM) are indicated)
CC1(C)CC(=O)C2=C(C1)Nc1cc(N3CCCC3)ccc1C2c1ccc(Cl)s1 (racemic) [Compound A97, (±)-9-(5-chlorothiophen-2-yl)-3,3-dimethyl-6-(pyrrolidin-1-yl)-3,4,9,10-tetrahydroacridin-1(2H)-one]	> 10 µM	Degrader (Compounds that degrade AR (greater than 50% degradation at 10 μM) are indicated)
CC1(C)CC(=O)C2=C(C1)Nc1ccc3nccnc3c1C2c1ccc(Br)s1 (racemic) [Compound A100, (±)-12-(5-bromothiophen-2-yl)-9,9-dimethyl-8,9,10,12-tetrahydropyrazino[2,3-a]acridin-11(7H)-one]	0.5 µM	Degrader (Compounds that degrade AR (greater than 50% degradation at 10 μM) are indicated)
CC1(C)CC(=O)C2=C(C1)Nc1ccc3ncncc3c1C2c1ccc(Cl)s1 (racemic) [Compound A101, (±)-12-(5-chlorothiophen-2-yl)-9,9-dimethyl-8,9,10,12-tetrahydropyrimido[5,4-a]acridin-11(7H)-one]	0.8 µM	Degrader (Compounds that degrade AR (greater than 50% degradation at 10 μM) are indicated)
CC1(C)CC(=O)C2=C(C1)Nc1ccc3ncncc3c1C2c1ccc(Br)s1 (racemic) [Compound A102, (±)-12-(5-bromothiophen-2-yl)-9,9-dimethyl-8,9,10,12-tetrahydropyrimido[5,4-a]acridin-11(7H)-one]	0.4 µM	Degrader (Compounds that degrade AR (greater than 50% degradation at 10 μM) are indicated)
Cc1ccc(C2C3=C(CC(C)(C)CC3=O)Nc3ccc4ncccc4c32)s1 (racemic) [Compound A103, (±)-9,9-dimethyl-12-(5-methylthiophen-2-yl)-8,9,10,12-tetrahydrobenzo[b][4,7]phenanthrolin-11(7H)-one]	0.3 µM	Degrader (Compounds that degrade AR (greater than 50% degradation at 10 μM) are indicated)
CC1(C)CC(=O)C2=C(C1)Nc1ccc3ncccc3c1C2c1cc(C(F)(F)F)cc(C(F)(F)F)c1 (stereo not drawn) [Compound A50]	6 µM	Degrader (Compounds that degrade AR (greater than 50% degradation at 10 μM) are indicated)
CC1(C)CC(=O)C2=C(C1)Nc1ccc3ccccc3c1C2c1ccc([N+](=O)[O-])cc1 (stereo not drawn) [Compound A51, 9,9-dimethyl-12-(4-nitrophenyl)-8,9,10,12-tetrahydrobenzo[a]acridin-11(7H)-one]	1.2 µM	Degrader (Compounds that degrade AR (greater than 50% degradation at 10 μM) are indicated)
CC1(C)CC(=O)C2=C(C1)Nc1ccc3ncccc3c1C2c1ccc(C#N)cc1 (stereo not drawn) [Compound A55]	> 10 µM	Degrader (Compounds that degrade AR (greater than 50% degradation at 10 μM) are indicated)
CC1(C)CC(=O)C2=C(C1)Nc1ccc3ncccc3c1C2c1ccccn1 (stereo not drawn) [Compound A57, 9,9-dimethyl-12-(pyridin-2-yl)-8,9,10,12-tetrahydrobenzo[b][4,7]phenanthrolin-11(7H)-one]	> 10 µM	Degrader (Compounds that degrade AR (greater than 50% degradation at 10 μM) are indicated)
CC1(C)CC(=O)C2=C(C1)Nc1ccc3c(c1C2c1ccc(F)c(F)c1)OCO3 (stereo not drawn) [Compound A59]	> 10 µM	Degrader (Compounds that degrade AR (greater than 50% degradation at 10 μM) are indicated)
CC1(C)CC(=O)C2=C(C1)Nc1ccc3ncccc3c1C2c1csc([N+](=O)[O-])c1 (stereo not drawn) [Compound A60]	1.7 µM	Degrader (Compounds that degrade AR (greater than 50% degradation at 10 μM) are indicated)
